Data published in patent publication US7989518B2, “Synthetic biocompatible material having an improved oxidation resistance, process for preparing the same and prosthetic articles obtained therefrom” (priority 2006, dated 2011).

Columns and labels:
[1] = Thermal stability of Lipoic Acid inside UHMWPE, by FTIR spectra; format: physicochemical; conditions: UHMWPE with 0.5% wt lipoic acid heated at 150° C. for 2 hours or 200° C. for 24 hours
Protocol: UHMWPE GUR 1050 (Ticona Inc, Bayport, Tex., USA) in powder form was mixed with 0.5 weight % of Lipoic Acid in powder form (Talamonti, Italy, stock n. 1050919074). The mixture was then moulded in a cell at 160° C. and at a pressure of 200 MPa. The purpose of these examples was to investigate the presence and stability of Lipoic Acid inside UHMWPE with which it was pre-mixed. UHMWPE commonly melts at 138° C., but Lipoic Acid melts at about 65° C. Therefore, to check the Lipoic Acid stability into the UHMWPE at high temperatures a Lipoic Acid-doped UHMWPE was tested at 150° C. and 200° C. […] Line B represents the spectrum of UHMWPE doped with LA, heated at 150° C. for 2 hours, then cooled at room temperature, in which the spectrum of pure UHMWPE was detracted as baseline.

[2] = Oxidation stability after gamma irradiation and aging, by FTIR oxidation index; format: physicochemical; conditions: 0.5 weight % in UHMWPE
Protocol: UHMWPE GUR 1050 (Ticona Inc, Bayport, Tex., USA) in powder form was mixed with 0.5 weight % of Lipoic Acid in powder form (Talamonti, Italy, stock n. 1050919074). The mixture was then moulded in a cell at 160° C. and at a pressure of 200 MPa.
A comparative sample was made with the same UHMWPE GUR 1050 only, namely without mixing it with lipoic acid.
Each sample of UHMWPE, virgin and doped with lipoic acid, was gamma irradiated to a dose of 30 kGy (Isomedix, Northborough, Mass.), then was processed into cylindrical pins of 20 mm length and 9 mm diameter.
Each sample, virgin and doped, was then aged at 80° C. in a convection oven for 5 weeks, in air (ASTM standard F2003-02). After aging and oxidation, thin sections of […] thickness of each sample were prepared using a Leitz Wetzlar Sledge Microtome (Leica, Nussloch, Germany). The irradiated and aged sections of cylindrical pins samples were then analysed by means of Fourier Transform Infrared Spectroscopy (FTIR). The IR analysis was performed using a Nicolet Magna 860 spectrometer.
The effect of aging on the oxidation of virgin UHMWPE and UHMWPE doped with lipoic acid is shown in FIG. 2 and FIG. 3, respectively. An oxidation index OI was defined as the ratio of the area under 1740 cm^−1 carbonyl and 1370 cm^−1 methylene absorbance peaks.

[3] = cited from earlier work

stability of Lipoic Acid (FTIR spectrum) [1]: substantially unchanged
stability of Lipoic Acid (FTIR spectrum) ([1]; listed as lipoic acid): stable
Structure (SMILES): O=C(O)CCCCC1CCSS1 (centres unmarked) [Lipoic Acid, Lipoic acid]
antioxidant effectiveness in UHMWPE [2]: effective as antioxidant
toxicity on human beings ([3]; 100 to 600 mg/day for 3 to 6 months): low toxicity
side effects ([3]; dose of 50 mg/day): no side effect reported
